Data from patent US12264146B2, “Rho kinase inhibitor, method for preparing same and uses thereof” (BEIJING INCREASE INNOVATIVE DRUG CO., LTD., priority 2018, dated 2025).

Experiments:
[1] = Toxicity test on endothelial cells EA.hy926, CCK-8 cell viability; format: cell-based; conditions: human, 1000~0.32 μmol/L, 5-fold dilution, read-out: IC50 of Test compound (cytotoxicity on EA.hy926 cells)
Description: In this test example, 31 groups, i.e., Groups 1 to 31, were set, in which Group 1 was a blank control group, Group 2 was a normal control group, Group 3 was a positive control group, and Groups 4 to 31 were test groups of the compounds of the present application. The specific test operation comprised: 100 μL of endothelial cells EA.hy926 (purchased from Suzhou Beina Chuanglian Biotechnology Co., Ltd.) with a density of 5×10^4 was added to each well of a 96-well plate, and transferred to an incubator at 37° C. with 5% CO2 and saturated humidity conditions and cultured for 24 hours, 100 μL of 2× the test compound solution prepared and diluted with DMEM medium containing 10% fetal bovine serum was added, in which the test compound added in the positive control group was Fasudil hydrochloride (purchased from Beijing Sihuan Pharmaceutical Co., Ltd., SFDA approval number H20173349) solution with different concentrations, an equal volume of DMEM medium was added in the blank control group, an equal volume of PBS buffer was added in the normal control group, and a duplicate well was set for each concentration point. After adding the test compound, the culture was continued in the incubator for 24 hours, then 20 μL of CCK-8 detection solution (purchased from Beijing Solarbio Science & Technology Co., Ltd., Cat. No. CA1210) was added to each well, interacted at 37° C. for 2.5 hours, shaken and mixed well, and then the absorbance value at 450 nm was detected.
OD values were detected, and the cell viability values of test groups of different concentrations were calculated according to the cell viability calculation formula as follows: Cell viability=(Atest group−Ablank control)/(Anormal control−Ablank control)*100%
wherein A represented absorbance value at 450 nm.
Prism6.0 was used to obtain the inhibitor concentration-viability curve and to calculate the IC50 of the test compound, the correlation coefficient R^2>0.99; the inhibitor concentration-viability curves of Fasudil hydrochloride, R-YK1601, R-YK1603, R-YK1606, R-YK1607, R-YK1610 were shown in FIGS. 1 to 6, in which the abscissa was the logarithm on base 10 of the concentration of the test compound, and the ordinate was the cell activity (i.e., cell viability).

[2] = tested on: subarachnoid hemorrhage in rats; assay: Rat subarachnoid hemorrhage (SAH) model by intravascular puncture, Sugawara bleeding score; format: in vivo; design: dose or concentration left out as unconfirmed; conditions: tail vein injection, 2 administrations 4 h apart, scored 24 h after first administration (Sugawara)
Description: Rat subarachnoid hemorrhage (SAH) model was built by intravascular puncture. After being weighed, the rats were anesthetized with sodium pentobarbital (50 mg/kg) or chloral hydrate (300 mg/kg) by intraperitoneal injection, then fixed on their back and maintained the animal's body temperature at about 37° C. The rats' neck skin was shaved for surgery, a median incision was made on the neck, and muscle and fascia were separated along the inner edge of stemocleidomastoid muscle to expose the main and bifurcation of right common carotid artery, and expose the external and internal carotid arteries.
The bifurcation of internal carotid artery was gently clamped with ophthalmic forceps, the bifurcation of the internal carotid artery and the external carotid artery was pierced with a 6-gauge syringe needle, the ophthalmic forceps holding the bifurcation of internal carotid artery was slightly loosen, and No. 3 fishing thread was used to perform a puncture at the bleeding point, the ophthalmic forceps on the internal carotid artery was loosen, and the fishing thread was inserted into skull. […] After staying for 15 seconds, the thread for puncture was completely removed, and the skin was sutured after compression to stop the bleeding. 1.6 million units of penicillin potassium (400,000 units/ml, 0.2 ml/rat) was intramuscularly injected to avoid wound infection. For the sham operation group, the thread for puncture was removed when resistance was felt without piercing the bifurcation of the anterior cerebral artery and the middle cerebral artery, while the remaining operation steps were the same as the model group. After the operation, the rats were transferred to a thermal insulation blanket, then transferred to a squirrel cage when they were basically awake, and kept normally.
In this test experimental, 32 groups were set, i.e., Groups 1 to 32, in which Group 1 was a normal control group (healthy rats), Group 2 was a sham operation control group (not modeling by puncture), Group 3 was a model control group (modeling by puncture, administrated with normal saline), Group 4 was a positive control group (modeling by puncture, administrated with fasudil hydrochloride injection), and Groups 5 to 32 were test groups of the compounds of the present application (modeling by puncture, respectively administrated with the compounds of the present application); and there were 8 animals (purchased from SPF (Beijing) Biotechnology Co., Ltd., the certificate number was SYXK (Beijing) 2016-0002) in each group, half of them were female and half of them were male. The animals were subjected to fasting for 12 to 18 hours without prohibition of drinking water before modeling. […] The rats were euthanized 24 h after the first administration, and the brains were taken. According to Sugawara's method (Reference: Sugawara T, Ayer R, Jadhav V, et al. A new grading system evaluating bleeding scale in filament perforation subarachnoid hemorrhage rat model. J Neurosci Methods. 2008, 167(2):327-34), the subarachnoid hemorrhage amounts were scored, and the scoring results were as follows: […]

Compound	IC50 at 24 h [1]	Cerebral hemorrhage volume score (x ± s) [2]
COc1nccc2c(S(=O)(=O)N3CCCNCC3C)cccc12 (racemic) [Compound YK1602, 1-methoxy-5-((2-methyl-1,4-diazacycloheptan-1-yl)sulfonyl)isoquinoline]	333 µM	12.92 ± 2.03
COc1ncc(C2CC2)c2c(S(=O)(=O)N3CCCNCC3C)cccc12 (racemic) [Compound YK1600-2, 4-cyclopropyl-1-methoxy-5-((2-methyl-1,4-diazacycloheptan-1-yl)sulfonyl)isoquinoline]	85.1 µM	14.49 ± 2.62
CCC1CNCCCN1S(=O)(=O)c1cccc2c(OC)nccc12 (racemic) [Compound YK1610, 5-((2-ethyl-1,4-diazacycloheptan-1-yl)sulfonyl)-1-methoxyisoquinoline]	98.8 µM	13.83 ± 2.01
CC1CNCCCN1S(=O)(=O)c1cccc2c(O)ncc(Cl)c12 (racemic) [Compound YK1606, 4-chloro-5-((2-methyl-1,4-diazacycloheptan-1-yl)sulfonyl)isoquinolin-1-ol]	98 µM	13.71 ± 2.03
O=S(=O)(c1cccc2cnccc12)N1CCCNCC1C1CC1 (racemic) [Compound YK1608, 5-((2-cyclopropyl-1,4-diazacycloheptan-1-yl)sulfonyl)isoquinoline]	165 µM	13.98 ± 2.01
CC1CNCCCN1S(=O)(=O)c1cccc2c(O)ncc(C3CC3)c12 (racemic) [Compound YK1600-1, 4-cyclopropyl-5-((2-methyl-1,4-diazacycloheptan-1-yl)sulfonyl)isoquinolin-1-ol]	97.8 µM	14.36 ± 2.53
CCCCC1CNCCCN1S(=O)(=O)c1cccc2c(O)nccc12 (racemic) [Compound YK1611, 5-((2-butyl-1,4-diazacycloheptan-1-yl)sulfonyl)isoquinolin-1-ol]	184 µM	13.39 ± 2.03
CC(C)C1CNCCCN1S(=O)(=O)c1cccc2c(O)nccc12 (racemic) [Compound YK1609, 5-((2-isopropyl-1,4-diazacycloheptan-1-yl)sulfonyl)isoquinolin-1-ol]	228 µM	13.27 ± 1.96
COc1nccc2c(S(=O)(=O)N3CCCNCC3CCC(C)C)cccc12 (racemic) [Compound YK1612, 5-((2-isopentyl-1,4-diazacycloheptan-1-yl)sulfonyl)-1-methoxyisoquinoline]	89.6 µM	14.05 ± 1.96
CCc1cnc(O)c2cccc(S(=O)(=O)N3CCCNCC3C)c12 (racemic) [Compound YK1607, 4-ethyl-5-((2-methyl-1,4-diazacycloheptan-1-yl)sulfonyl)isoquinolin-1-ol]	139 µM	13.09 ± 2.09
COc1ncc(F)c2c(S(=O)(=O)N3CCCNCC3C)cccc12 (racemic) [Compound YK1605, 4-fluoro-1-methoxy-5-((2-methyl-1,4-diazacycloheptan-1-yl)sulfonyl)isoquinoline]	103 µM	13.95 ± 2.02
CC1CNCCCN1S(=O)(=O)c1cccc2cnccc12 (racemic) [Compound YK1603, 5-((2-methyl-1,4-diazacycloheptan-1-yl)sulfonyl)isoquinoline]	176 µM	12.96 ± 1.99
CC1CNCCCN1S(=O)(=O)c1cccc2c(O)nccc12 (racemic) [Compound YK1601, 5-((2-methyl-1,4-diazacycloheptan-1-yl)sulfonyl)isoquinolin-1-ol]	496 µM	12.75 ± 2.01
CC1CNCCCN1S(=O)(=O)c1cccc2c(O)ncc(F)c12 (racemic) [Compound YK1604, 4-fluoro-5-((2-methyl-1,4-diazacycloheptan-1-yl)sulfonyl)isoquinolin-1-ol]	130 µM	13.08 ± 1.97
